Data as given in patent US10106565B2 (priority 2008, dated 2018).

Experiments:
CD4 T lymphocytes = test: Proliferation of CD4 T lymphocytes in PBMC induced by IL2 (CFSE dilution, flow cytometry); assay type: cell-based, human; details: 20 μM dendrimer; PBMC with IL2; IL2 alone gives 70.2%
Method: Peripheral blood samples are obtained from adult healthy volunteers through the Etablissement Français du Sang (Toulouse, France). Peripheral Blood Mononuclear Cells (PBMC) are isolated by Ficoll density gradient (Amersham Biosciences AB).
PBMC are cultured at a final concentration of 1.5×10^6 cells/mL in complete RPMI 1640 medium, i.e. supplemented with 10% of heat inactivated fetal calf serum (FCS) (Invitrogen), 1 mM sodium pyruvate (Invitrogen), 2 mM L-glutamine, 100 U/mL penicillin and 100 μg/mL streptomycin (Cambrex Bioscience). Proliferation is activated by 400 U/mL of interleukin 2 (IL2) (Sanofi-Aventis) (a “growth factor” for lymphocytes). […]
Proliferation of CD4 T lymphocytes is evaluated by flow cytometry by analyzing the intracellular dilution of a fluorescent probe: the 5,6-carboxyfluorescein diacetate N-succinimidylester (CFSE). […] Then, CFSE dilution is analyzed by flow cytometry to measure the proliferation CD4 T cells. After gating for CD4 positive cells (mouse anti-human CD4-PE-Cy5 clone 13B8.2, Beckman-Coulter), CFSE fluorescence intensities are analyzed, and the percentage of CD4 T cells which have proliferated during the culture is taken into account. […] The overall differences are evaluated by analysis of variance test (ANOVA) with Sigma Stat software (Systat Software).

[1] = test system: purified CD4 T lymphocytes; assay type: cell-based, human; details: 20 μM dendrimer; anti-CD3/anti-CD28 microbeads and IL2; without dendrimer 88%
Method: PBMC from adult healthy volunteers are prepared as described in example 5.1.
CD4 T lymphocytes are then purified from PBMC by positive selection using microbeads conjugated with anti-CD4 mAb, according to the manufacturer's instructions (Miltenyi Biotec). The cells obtained after the purification are >98% pure (as verified by flow cytometry).
Purified CD4 T lymphocytes are cultured at a final concentration of 1.5×10^6 cells/mL in complete RPMI 1640 medium (as described in example 5.1). Then, their proliferation is triggered by microbeads coated with anti-CD3 and anti-CD28 mAbs (Dynabeads®, Dynal Biotech ASA). Dendrimer Gc1 and its analogs are made soluble in sterile water at 2 mM and filtered through a 0.2 μm membrane before use at 20 μM in culture.
Proliferation of purified CD4 T lymphocytes is evaluated by flow cytometry by analyzing the intracellular dilution of a fluorescent probe: the CFSE.

human monocytes = test: Affymetrix genechip transcriptional profile of monocytes activated by dendrimer; assay type: cell-based; details: 20 μM, 6 hours, vs untreated monocytes
Method: Peripheral Blood Mononuclear Cells (PBMC) from adult healthy volunteers are prepared as described in example 1.
Monocytes are then purified by positive selection using microbeads conjugated with anti-CD14 mAb, according to the manufacturer's instructions (Miltenyi Biotec). The cells obtained after the purification are >95% pure. The CD14 negative fraction is collected as Peripheral Blood Lymphocytes (PBL).
Monocytes are cultured at a final concentration of 1×10^6 cells/mL in complete RPMI 1640 medium (as described in example 1.1).
For genechip analysis, 10×10^6 monocytes from 3 donors (and from 3 more donors for quantitative PCR) are cultured in 25 cm^2 dishes. They are stimulated with 20 μM of dendrimer for 6 hours or remain untreated (control cells).
Total RNA are extracted from 10×10^6 monocytes using TRIzol™ Reagent (Invitrogen), according to the manufacturer's instructions. The quality and integrity of the RNA obtained are assessed by using an Agilent 2100 Bioanalyser (Agilent Technologies) after a denaturating step at 70° C. for 2 minutes. cRNA are prepared according to one-Cycle Target Labelling protocol (Affymetrix) starting from 1 μg of total RNA.
cRNA are fragmented and hybridized to Affymetrix HG-U133 plus 2.0 arrays. […] Monocytes from 3 donors are analyzed after 6 hour incubation in the presence or absence of the dendrimer Gc1. […]

[2] = test system: osteoclasts differentiated from human monocytes on bone matrix; test: Bone resorption in vitro (Crosslaps assay, CTX release); assay type: cell-based; details: for inhibition at 0.2 µM: 200 nM in differentiating medium; for inhibition at 20 µM: Monocyte, monocytes pre-incubated (6 hours, 20 μM) before differentiation
Method: PBMC from adult healthy volunteers are prepared as described in example 1.
Monocytes are then purified as described in section 4.2.
Monocytes were cultured in bone matrix 96-well plates (OsteoAssay Human bone plate, Lonza, USA) and differentiated into osteoclasts in the presence of M-CSF and sRANK-Ligand as described in section 4.2. Supernatants were collected and bone resorption was evaluated using a Crosslaps assay (Nordicbioscience, Danemark) which measures collagen degradation fragments.

IL-1ra−/− mice = test: Spontaneous arthritis in IL-1ra-/- mice; assay type: in vivo; details: 10 mg/kg weekly intravenous from 8 weeks of age; at the age of 15 weeks
Text: Dendrimer ABP (azabisphosphonate) or Gc1 (FIG. 16A) was initially compared to two other dendrimer-based systems, dendrimer azamonophosphonate (AMP) and dendrimer polypropyleneimine (PPI), for antiarthritic activity in mice, according to the following protocole, described by Hayder et al. Science Transl. Med. 2011, 3, 81ra35.
IL-1ra−/− mice develop spontaneous arthritis beginning at 4 weeks of age. By 10 weeks, 100% of mice show full-blown disease, with marked paw swelling. We assessed the effect of dendrimers ABP, AMP, and PPI in this model of arthritis via weekly intravenous injections (10 mg/kg) starting at 8 weeks of age. The evolution of inflammation and arthritis was followed by measuring the hind paw swelling and by clinical arthritic score. The arthritic score per animal was the sum of the scores attributed to the four paws (28).

## CN(/N=C/c1ccc(OP2(Oc3ccc(/C=N/N(C)P(=S)(Oc4ccc(CCN(CP(=O)(O)O)CP(=O)(O)O)cc4)Oc4ccc(CCN(CP(=O)(O)O)CP(=O)(O)O)cc4)cc3)=NP(Oc3ccc(/C=N/N(C)P(=S)(Oc4ccc(CCN(CP(=O)(O)O)CP(=O)(O)O)cc4)Oc4ccc(CCN(CP(=O)(O)O)CP(=O)(O)O)cc4)cc3)(Oc3ccc(/C=N/N(C)P(=S)(Oc4ccc(CCN(CP(=O)(O)O)CP(=O)(O)O)cc4)Oc4ccc(CCN(CP(=O)(O)O)CP(=O)(O)O)cc4)cc3)=NP(Oc3ccc(/C=N/N(C)P(=S)(Oc4ccc(CCN(CP(=O)(O)O)CP(=O)(O)O)cc4)Oc4ccc(CCN(CP(=O)(O)O)CP(=O)(O)O)cc4)cc3)(c3ccc(/C=N/N(C)P(=S)(Oc4ccc(CCN(CP(=O)(O)O)CP(=O)(O)O)cc4)Oc4ccc(CCN(CP(=O)(O)O)CP(=O)(O)O)cc4)cc3)=N2)cc1)P(=S)(Oc1ccc(CCN(CP(=O)(O)O)CP(=O)(O)O)cc1)Oc1ccc(CCN(CP(=O)(O)O)CP(=O)(O)O)cc1 (stereo not shown) [Gc1]
CD4 T lymphocytes
  CD4 T lymphocytes that have divided: 17.2%
[1]
  purified CD4 T lymphocytes that have divided: 10.2%
Human monocytes; fold change ≤−2.0 in at least two of three donors
  number of genes under-expressed by da-monocytes: 62
Human monocytes; fold change ≥2.0 in at least two of three donors
  number of genes over-expressed by da-monocytes: 78
[2]; 288 h, day 12
  inhibition at 0.2 µM: ~60%
[2]; 360 h, day 15
  inhibition at 0.2 µM: ~80%
[2]; day 12
  inhibition at 20 µM: ~80%
[2]; day 15
  inhibition at 20 µM: ~50%
IL-1ra−/− mice
  arthritic score: significant decrease
  paw swelling: significant decrease
